System: LTD4 evoked contractions of guinea pig ileum
Assay: LTD4 antagonism on isolated guinea pig ileum (inhibition of LTD4 evoked ileal contractions, single submaximal LTD4 responses)
Format: cell-based, guinea pig (male Hartley)
Conditions: Cavia porcellus, 37° C., five minute exposure to drug, 2-4 concentrations, linear regression interpolation, read-out: -log IC50 (antagonist concentration that produced 50% inhibition of the LTD4 responses) (converted)
Procedure: Male, Hartley guinea pigs weighing 200-450 grams were killed by decapitation. A section of terminal ileum was removed, the lumen cleaned, and the tissue divided into 2.5 cm. segments. The ilea were mounted in 10 ml. tissue baths containing Krebs-bicarbonate solution of the following composition in mmoles/liter: KCl, 4.6; CaCl2 ·2H2 O, 1.2; KH2 PO4, 1.2; MgSO4 ·7H20, 1.2; NaCl, 118.2; NaHCO3, 24.8; and dextrose, 10.0. The bath fluid was maintained at 37° C. and aerated with 95 percent oxygen and 5 percent CO2. In addition, the buffer contained […] atropine to reduce ileal spontaneous activity. Isometric measurements were made with a Grass FTO3C force-displacement transducer and recorded on a Grass polygraph as change in grams of force. A passive force of 0.5 g. was applied to the tissues. After an appropriate equilibration period, single submaximal control responses to pure LTD4 were obtained. Following a five minute exposure of the ileum to an experimental drug, the control concentration of LTD4 was added to the tissue bath. The response of the ileum to LTD4 in the presence of the drug was compared to the response in the absence of the drug. Various degrees of LTD4 antagonism were obtained using 2-4 different concentrations of an experimental compound on a single ileum.

IC50 [nM]	SMILES
3.8	CCCc1c(COc2ccc(Cc3nnn(CCCc4nnn[nH]4)n3)cc2)ccc(C(C)=O)c1O [Example 24, 1-2[-Hydroxy-3-propyl-4[[4-[[2-[3-(1H-tetra-zol-5-yl)propyl]-2H-tetrazol-5-yl]methyl]phenoxy]methyl]phenyl]ethanone]
8.13	CCCc1c(COc2ccc(Cc3nnn(CCCCc4nnn[nH]4)n3)cc2)ccc(C(C)=O)c1O [Example 26, 1-[2-Hydroxy-3-propyl-4-[[4-[[2-[4-(1H-tetrazol-5-yl)butyl]tetrazol-5-yl]methyl]phenoxy]methyl]phenyl]ethanone]
28.2	CCCc1c(COc2ccc(Cc3nnn(CC(=O)O)n3)cc2)ccc(C(C)=O)c1O [Example 31, 5-[[4-[(4-Acetyl-3-hydroxy-2-propylphenyl)methoxy]phenyl]methyl]-2H-tetrazole-2-acetic acid]
57.5	CCCc1c(COc2ccc(Cc3nnnn3CCCC(=O)O)cc2)ccc(C(C)=O)c1O [Example 32, 5-[[4-[[4-Acetyl-3-hydroxy-2-propylphenyl)methoxy]phenyl]methyl]-1H-tetrazole-1-butyric acid]
20	CCCc1c(COc2ccc(Cc3nnn(CCCC(=O)O)n3)cc2)ccc(C(C)=O)c1O [Example 33, 5-[(4-[(4-Acetyl-3-hydroxy-2-propylphenyl)methoxy]phenyl)methyl]-2H-tetrazole-2-butanoic acid]
11.7	CCCc1c(COc2ccc(Cc3nnn(CCCCC(=O)O)n3)cc2)ccc(C(C)=O)c1O [Example 35, 5-[(4-[(4-Acetyl-3-hydroxy-2-propylphenyl)methoxy]phenyl)methyl]-2H-tetrazole-2-valeric acid]

Further lines, the molecule ahead of its results:

SMILES	IC50 [nM]
CCCc1c(COc2ccc(Cc3nnnn3Cc3nnn[nH]3)cc2)ccc(C(C)=O)c1O [Example 21]	17.4
CCCc1c(COc2ccc(Cc3nnn(Cc4nnn[nH]4)n3)cc2)ccc(C(C)=O)c1O [Example 22, 1-[2-hydroxy-3-(propyl)-4-[[4-[[2-(1H-tetra-zol-5-ylmethyl)-2H-tetrazol-5-yl]methyl]phenoxyl]methyl]phenyl]ethanone]	11.7
CCCc1c(COc2ccc(Cc3nnnn3CCCc3nnn[nH]3)cc2)ccc(C(C)=O)c1O [Example 23]	14.1
CCCc1c(COc2ccc(Cc3nnnn3CCCCc3nnn[nH]3)cc2)ccc(C(C)=O)c1O [Example 25]	19.1
CCCc1c(COc2ccc(Cc3nnnn3CCCCC(=O)O)cc2)ccc(C(C)=O)c1O [Example 34, 5-[(4-[(4-Acetyl-3-hydroxy-2-propylphenyl)methoxy]phenyl)methyl]-1H-tetrazol-1-valeric acid]	55

Molecular target: T1, LTD4 responses of guinea pig ileum and trachea (Cavia porcellus, UniProt Q2NNR5)
T1 sequence (Q2NNR5 1-340): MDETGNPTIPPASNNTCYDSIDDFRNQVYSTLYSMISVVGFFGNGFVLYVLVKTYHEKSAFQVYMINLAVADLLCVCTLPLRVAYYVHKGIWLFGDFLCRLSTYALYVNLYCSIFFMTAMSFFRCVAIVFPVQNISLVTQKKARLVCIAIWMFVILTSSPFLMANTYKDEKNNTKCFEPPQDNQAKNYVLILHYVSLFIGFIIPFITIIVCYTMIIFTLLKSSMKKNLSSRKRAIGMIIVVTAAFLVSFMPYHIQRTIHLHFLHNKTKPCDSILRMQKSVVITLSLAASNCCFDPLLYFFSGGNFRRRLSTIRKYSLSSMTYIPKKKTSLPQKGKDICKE
Assay: LTD4 antagonism, cumulative LTD4 concentration-response curves in guinea pig ileum and trachea (KB by Furthgott method)
Format: cell-based, guinea pig (male Hartley)
Conditions: 30 minute incubation with antagonist, Table I title names ileal contractions

pKB (negative log of the dissociation KB)	SMILES
6.65	CCCc1c(COc2ccc(Cc3nnn(CCCN(C)C)n3)cc2)ccc(C(C)=O)c1O [Example 15, 5-[(4-((4-Acetyl-3-hydroxy-2-propylphenyl)methoxy)phenyl)methyl]-2-(3-(dimethylamino)propyl)-2H-tetrazole]
6.01	CCCc1c(COc2ccc(Cc3nnnn3CCCN(C)C)cc2)ccc(C(C)=O)c1O [Example 16, 5-[(4-((4-Acetyl-3-hydroxy-2-propylphenyl)methoxy)phenyl)methyl]-1-(3-(dimethylamino)propyl)-1H-tetrazole]
6.45	CCCc1c(COc2ccc(Cc3nnn(CCCSC)n3)cc2)ccc(C(C)=O)c1O [Example 17, 5-[(4-((4-Acetyl-3-hydroxy-2-propylphenyl)methoxy)phenyl)methyl]-2-(3-methylthiopropyl)-2H-tetrazole]
7.63	CCCc1c(COc2ccc(-c3nnn(CCCc4nnn[nH]4)n3)cc2)ccc(C(C)=O)c1O [Example 36]
6.37	CCCc1c(COc2ccc(-c3nnn(CCCN(C)C)n3)cc2)ccc(C(C)=O)c1O [Example 37, 1-[4-[[4-[2-[3-(Dimethylamino)propyl]-2H-tetrazol-5-yl]phenoxy]methyl]-2-hydroxy-3-propylphenyl]ethanone]
6.50	CCCc1c(COc2ccc(Cc3nnn(CCC[S+](C)[O-])n3)cc2)ccc(C(C)=O)c1O (stereo not shown) [Example 39, 5-[(4-((4-Acetyl-3-hydroxy-2-propylphenyl)methoxy)phenyl)methyl]-2-(3-methylsulfinylpropyl)-2H-tetrazole]
6.37	CCCc1c(COc2ccc(Cc3nnn(CCCS(C)(=O)=O)n3)cc2)ccc(C(C)=O)c1O [Example 40, 5-[(4-((4-Acetyl-3-hydroxy-2-propylphenyl)methoxy)phenyl)methyl]-2-(3-methylsulfonylpropyl)-2H-tetrazole]

Further lines, the molecule ahead of its results:

SMILES	pKB (negative log of the dissociation KB)
CCCc1c(COc2ccc(Cc3nnn(CCCCCc4nnn[nH]4)n3)cc2)ccc(C(C)=O)c1O.[Na]	7.64
CCCc1c(COc2ccc(Cc3nnn(CCCCCCc4nnn[nH]4)n3)cc2)ccc(C(C)=O)c1O [Example 27, 1-[2-Hydroxy-3-propyl-4-[[4-[[2-[6-(1H-tetrazol-5-yl)hexyl]-2H-tetrazol-5-yl]methyl]phenoxy]methyl]phenyl]ethanone]	7.38
CCCc1c(COc2ccc(Cc3nnn(CCC(C)(C)Cc4nnn[nH]4)n3)cc2)ccc(C(C)=O)c1O [Example 28]	7.70
CCCc1c(COc2ccc(Cc3nnn(Cc4ccc(-c5nnn[nH]5)cc4)n3)cc2)ccc(C(C)=O)c1O [Example 38, 1-[2-Hydroxy-3-propyl-4-[[4-[[2-[[4-(1H-tetrazol-5-yl)phenyl]methyl]-2H-tetrazol-5-yl]methyl]phenoxy]methyl]phenyl]ethanone]	7.90
